Legend:
Assay type in all cases: biochemical
[1] = target: MMP-14 (Homo sapiens, UniProt P50281); test: MMP-14 enzyme inhibition assay (coumarin-labelled peptide substrate); conditions: for inhibition at 0.1 µM / inhibition at 5 µM: read-out: percentage inhibition MMP14
Method in brief: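 Recombinant human enzyme, APMA-activated if necessary, was incubated with McaPLGLDpaAR substrate and compound (10 concentrations in duplicate, 100 μM to 5.1 nM) in Tris-HCl pH 7.6 with NaCl, CaCl2 and Brij 35 for 2 h at 37 °C. Fluorescence was read at 320/405 nm, and IC50 was taken from a four-parameter fit.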

[2] = target: T1, gelatinase A (MMP-2) (Homo sapiens, UniProt P08253); test: MMP-2 enzyme inhibition assay (coumarin-labelled peptide substrate); conditions: read-out: IC50 MMP2
T1 sequence (P08253 110-660): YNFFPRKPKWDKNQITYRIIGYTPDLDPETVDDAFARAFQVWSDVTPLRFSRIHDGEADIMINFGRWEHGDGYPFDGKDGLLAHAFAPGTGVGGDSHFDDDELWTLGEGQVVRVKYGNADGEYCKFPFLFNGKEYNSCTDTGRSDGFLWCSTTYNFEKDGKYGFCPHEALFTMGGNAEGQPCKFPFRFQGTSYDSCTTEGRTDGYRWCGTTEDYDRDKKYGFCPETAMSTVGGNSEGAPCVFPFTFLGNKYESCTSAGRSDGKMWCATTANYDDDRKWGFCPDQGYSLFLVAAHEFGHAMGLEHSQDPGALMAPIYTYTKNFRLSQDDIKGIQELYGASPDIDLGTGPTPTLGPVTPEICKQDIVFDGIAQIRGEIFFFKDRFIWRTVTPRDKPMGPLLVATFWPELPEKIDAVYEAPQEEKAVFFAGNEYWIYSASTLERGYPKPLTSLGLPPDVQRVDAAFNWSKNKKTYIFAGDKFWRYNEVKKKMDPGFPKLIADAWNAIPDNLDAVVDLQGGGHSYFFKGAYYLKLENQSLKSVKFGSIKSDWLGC
Method in brief: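 Recombinant human MMP-2, APMA-activated if necessary, run as for the MMP-9 protocol: McaPLGLDpaAR substrate (8 μM working dilution) in 100 mM Tris-HCl pH 7.6, 100 mM NaCl, 10 mM CaCl2, 0.05% Brij 35; ten 3-fold concentrations (100 μM–5.1 nM) in duplicate, 2 h at 37° C. Fluorescence ex 320/em 405 nm, unstopped; IC50 from four-parameter fit.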

[3] = target: T2, collagenase (MMP-1) (Homo sapiens, UniProt P03956); test: MMP-1 enzyme inhibition assay (coumarin-labelled peptide substrate); conditions: for inhibition at 5 µM / inhibition at 0.1 µM: read-out: percentage inhibition MMP1
T2 sequence (P03956 100-469): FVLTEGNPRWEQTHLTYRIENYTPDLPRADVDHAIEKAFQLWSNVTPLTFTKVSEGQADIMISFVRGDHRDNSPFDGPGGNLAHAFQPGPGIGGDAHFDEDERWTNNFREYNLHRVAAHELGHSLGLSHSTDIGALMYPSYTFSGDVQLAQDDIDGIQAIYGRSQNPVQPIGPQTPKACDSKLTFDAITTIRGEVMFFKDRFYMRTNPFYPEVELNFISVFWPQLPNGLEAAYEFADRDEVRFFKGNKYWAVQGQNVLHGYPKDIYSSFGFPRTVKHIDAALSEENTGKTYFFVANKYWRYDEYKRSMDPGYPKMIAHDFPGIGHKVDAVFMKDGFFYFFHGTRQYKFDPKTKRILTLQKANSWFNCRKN
Method in brief: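 Recombinant human MMP-1, APMA-activated if needed, in Tris-HCl pH 7.6 with NaCl, CaCl2 and 0.05% Brij 35; McaPLGLDpaAR substrate added as 8 μM solution, 2 h at 37 °C. Fluorescence (320/405 nm) read without stopping; IC50 from 10 duplicate concentrations (100 μM–5.1 nM) by four-parameter fit.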

| Compound | inhibition at 0.1 µM [1] [%] | inhibition at 5 µM [1] [%] | IC50 [2] [nM] | inhibition at 5 µM [3] [%] | IC50 ([1]; read-out: IC50 MMP14) [nM] | IC50 ([3]; read-out: IC50 MMP1) [nM] | inhibition at 0.1 µM [3] [%] |
| --- | --- | --- | --- | --- | --- | --- | --- |
| O=CN(O)C(CS(=O)(=O)N1CCc2cc(C(F)(F)F)ccc2C1)[C@H]1CCCO1 (stereo partly drawn) [Example 47, N-hydroxy-N-(1-[(2R)-tetrahydrofuran-2-yl]-2-{[6-(tri-fluoromethyl)-3,4-dihydroisoquinolin-2(1H)-yl]sulfonyl}ethyl)formamide] | 7 | 79 | 33 | 40 |  |  |  |
| O=CN(O)[C@H](CS(=O)(=O)N1CCc2ccc(C(F)(F)F)cc2C1)[C@H]1CCCO1 [Example 27, N-hydroxy-N-((1S)-1-[(2R)-tetrahydrofuran-2-yl]-2-{[7-(trifluoromethyl)-3,4-dihydroisoquinolin-2(1H)-yl]sulfonyl}ethyl)formamide] |  | 41 | 58 | 30 |  |  |  |
| O=CN(O)[C@@H](CS(=O)(=O)N1CCc2ccc(C(F)(F)F)cc2C1)[C@H]1CCCO1 [Example 32, N-hydroxy-N-((1R)-1-[(2R)-tetrahydrofuran-2-yl]-2-{[7-(trifluoromethyl)-3,4-dihydroisoquinolin-2(1H)-yl]sulfonyl}ethyl)formamide] |  | 14 | > 5000 | 4 |  |  |  |
| O=CN(O)C(CCc1ccccc1)CS(=O)(=O)N1CCc2ccccc2C1 (stereo not shown) [Example 1, N-{1-[(3,4-dihydroisoquinolin-2(1H)-ylsulfonyl)methyl]-3-phenylpropyl}-N-hydroxyformamide] |  |  | 95 |  | > 5000 | > 5000 |  |
| CC(C)C(CS(=O)(=O)N1CCc2ccc(-c3ccc(F)cc3)cc2C1)N(O)C=O (stereo not shown) [Example 50, N-[1-({[7-(4-fluorophenyl)-3,4-dihydroisoquinolin-2(1H)-yl]sulfonyl}methyl)-2-methylpropyl]-N-hydroxyformamide] | 13 | 83 | 90 | 0 |  |  |  |
| O=CN(O)C(CS(=O)(=O)N1CCc2ccc(-c3ccc(F)cc3)cc2C1)C1CC1 (stereo not shown) [Example 75, N-(1-cyclopropyl-2-{[7-(4-fluorophenyl)-3,4-dihydro-isoquinolin-2(1H)-yl]sulfonyl}ethyl)-N-hydroxyformamide] | 11 | 92 | 219 | 0 |  |  |  |
| CCC(CC)C(CS(=O)(=O)N1CCc2cc(C(F)(F)F)ccc2C1)N(O)C=O (stereo not shown) [Example 37, N-[2-ethyl-1-({[6-(trifluoromethyl)-3,4-dihydroisoquinolin-2(1H)-yl]sulfonyl}methyl)butyl]-N-hydroxyformamide] | 8 | 83 | 35 | 36 |  |  |  |
| O=CN(O)C(CS(=O)(=O)N1CCc2ccc(F)cc2C1)C1CCCC1 (stereo not shown) [Example 60, N-{1-cyclopentyl-2-[(7-fluoro-3,4-dihydroisoquinolin-2(1H)-yl)sulfonyl]ethyl}-N-hydroxyformamide] |  | 16 | 411 | 6 |  |  |  |
| CC(C)(C)CC(CS(=O)(=O)N1CCc2cc(C(F)(F)F)ccc2C1)N(O)C=O (stereo not shown) [Example 43, N-[3,3-dimethyl-1-({[6-(trifluoromethyl)-3,4-dihydro-isoquinolin-2(1H)-yl]sulfonyl}methyl)butyl]-N-hydroxyformamide] | 14 | 89 | 21 | 53 |  |  |  |
| CCC#CCC(C)(C)C(CS(=O)(=O)N1CCc2cc(C(F)(F)F)ccc2C1)N(O)C=O (stereo not shown) [Example 30, N-[2,2-dimethyl-1-({[6-(trifluoromethyl)-3,4-dihydro-isoquinolin-2(1H)-yl]sulfonyl}methyl)hept-4-yn-1-yl]-N-hydroxyformamide] |  | 38 | 880 | 8 |  |  |  |
| CC(C)(C)CC(CS(=O)(=O)N1Cc2ccc(F)cc2C1)N(O)C=O (stereo not shown) [Example 26, N-(1-{[(5-fluoro-1,3-dihydro-2H-isoindol-2-yl)sulfonyl]methyl}-3,3-dimethylbutyl)-N-hydroxyformamide] |  | 82 | 60 | 92 |  |  | 17 |
| CC(C)(Cc1ccccc1)C(CS(=O)(=O)N1CCc2cc(C(F)(F)F)ccc2C1)N(O)C=O (stereo not shown) [Example 31, N-[2,2-dimethyl-3-phenyl-1-({[6-(trifluoromethyl)-3,4-dihydroisoquinolin-2(1H)-yl]sulfonyl}methyl)propyl]-N-hydroxyformamide] |  | 19 | 939 | 10 |  |  |  |
| O=CN(O)C(CS(=O)(=O)N1CCc2ccc(-c3ccsc3)cc2C1)C1CCCC1 (stereo not shown) [Example 68, N-(1-cyclopentyl-2-{[7-(3-thienyl)-3,4-dihydroisoquinolin-2(1H)-yl]sulfonyl}ethyl)-N-hydroxyformamide] | -30 | 99 | 221 | 0 |  |  |  |
| O=CN(O)C(CS(=O)(=O)N1CCc2ccc(Br)cc2C1)C1CCCC1 (stereo not shown) [Example 64, N-{2-[(7-bromo-3,4-dihydroisoquinolin-2(1H)-yl)sulfonyl]-1-cyclopentylethyl}-N-hydroxyformamide] |  | 71 | 42 | 36 |  |  |  |

More lines, in order of falling IC50 [2], values ahead:

| inhibition at 0.1 µM [1] [%] | inhibition at 5 µM [1] [%] | IC50 [2] [nM] | inhibition at 5 µM [3] [%] | IC50 ([1]; read-out: IC50 MMP14) [nM] | IC50 ([3]; read-out: IC50 MMP1) [nM] | inhibition at 0.1 µM [3] [%] | Compound |
| --- | --- | --- | --- | --- | --- | --- | --- |
|  | 15 | 474 | 25 |  |  |  | O=CN(O)C(CS(=O)(=O)N1Cc2ccc(F)cc2C1)C1CCCC1 (stereo not shown) [Example 80, N-{1-cyclopentyl-2-[(5-fluoro-1,3-dihydro-2H-isoindol-2-yl)sulfonyl]ethyl}-N-hydroxyformamide] |
|  | 49 | 298 | 14 |  |  |  | O=CN(O)C(CS(=O)(=O)N1CCc2ccc(F)cc2C1)c1ccoc1 (stereo not shown) [Example 52, N-[2-[(7-fluoro-3,4-dihydroisoquinolin-2(1H)-yl)sulfonyl]-1-(3-furyl)ethyl]-N-hydroxyformamide] |
|  | 50 | 277 | 30 |  |  |  | CC(C)(C)C(CS(=O)(=O)N1CCc2ccc(Cl)cc2C1)N(O)C=O (stereo not shown) [Example 65, N-(1-{[(7-chloro-3,4-dihydroisoquinolin-2(1H)-yl)sulfonyl]methyl}-2,2-dimethylpropyl)-N-hydroxyformamide] |
|  | 30 | 151 | 4 |  |  |  | COc1ccc2c(c1)CN(S(=O)(=O)CC(CCC1CCCO1)N(O)C=O)CC2 (stereo not shown) [Example 33, N-hydroxy-N-[1-{[(7-methoxy-3,4-dihydroisoquinolin-2(1H)-yl)sulfonyl]methyl}-3-(tetrahydrofuran-2-yl)propyl]formamide] |
|  | 78 | 150 | 94 |  |  | 22 | O=CN(O)[C@H](CS(=O)(=O)N1Cc2ccc(F)cc2C1)[C@H]1CCCO1 [Example 29, N-{(1S)-2-[(5-fluoro-1,3-dihydro-2H-isoindol-2-yl)-sulfonyl]-1-[(2R)-tetrahydrofuran-2-yl]ethyl}-N-hydroxyformamide] |
| 14 | 95 | 78 | 5 |  |  |  | CC(C)c1ccc2c(c1)CCN(S(=O)(=O)CC(C1CC1)N(O)C=O)C2 (stereo not shown) [Example 85, N-{1-cyclopropyl-2-[(6-isopropyl-3,4-dihydroisoquinolin-2(1H)-yl)sulfonyl]ethyl}-N-hydroxyformamide] |
| 3 | 82 | 35 | 12 |  |  |  | CCC(CC)C(CS(=O)(=O)N1CCc2cc(Cl)c(Cl)cc2C1)N(O)C=O (stereo not shown) [Example 34, N-(1-{[(6,7-dichloro-3,4-dihydroisoquinolin-2(1H)-yl)-sulfonyl]methyl}-2-ethylbutyl)-N-hydroxyformamide] |

— US7879876B2, “Sulfonamide derivatives and use thereof for the modulation of metalloproteinases” (Merck Serono SA, priority 2005, dated 2011)
